{"source": "paper PMC2741015", "about": "(Molecular and biochemical parasitology, 2009)", "molecules": {"B1": {"name": "Plasmodium falciparum serine hydroxymethyltransferase with an N-terminal histidine tag (enzyme, Plasmodium falciparum (strain 3D7), UniProt Q8I566 1-442, looked up)", "chain": "MFNNDPLQKYDKELFDLLEKEKNRQIETINLIASENLTNTAVRECLGDRISNKYSEGYPHKRYYGGNDYVDKIEELCYKRALEAFNVSEEEWGVNVQPLSGSAANVQALYALVGVKGKIMGMHLCSGGHLTHGFFDEKKKVSITSDLFESKLYKCNSEGYVDMESVRNLALSFQPKVIICGYTSYPRDIDYKGFREICDEVNAYLFADISHISSFVACNLLNNPFTYADVVTTTTHKILRGPRSALIFFNKKRNPGIDQKINSSVFPSFQGGPHNNKIAAVACQLKEVNTPFFKEYTKQVLLNSKALAECLLKRNLDLVTNGTDNHLIVVDLRKYNITGSKLQETCNAINIALNKNTIPSDVDCVSPSGIRIGTPALTTRGCKEKDMEFIADMLLKAILLTDELQQKYGKKLVDFKKGLVNNPKIDELKKEVVQWAKNLPFA"}}, "key": {"[1]": {"molecular_target": "T1, P. falciparum SHMT (PfSHMT) (Plasmodium falciparum, UniProt Q8I566)", "T1 sequence (Q8I566 1-442)": "B1 chain", "test": "PfSHMT activity inhibition by antifolates", "format": "biochemical"}, "[2]": {"molecular_target": "P. falciparum SHMT apo enzyme (Plasmodium falciparum, UniProt Q8I566)", "test": "Activity of apo PfSHMT with and without PLP", "format": "biochemical", "settings": "apo enzyme with vs without PLP (Fig 4A)"}, "[3]": {"molecular_target": "PfSHMT protein interaction with SHMT or DHFR-TS mRNA (Plasmodium falciparum, UniProt Q8I566)", "test": "RNA-protein interaction gel shift, competition with substrates", "format": "binding", "settings": "500 nM SHMT protein, 0.5 nM labeled RNA; 125 μM PLP, 3 mM serine, 3 mM THF"}, "[4]": {"molecular_target": "T1, P. falciparum SHMT (PfSHMT)", "test": "Michaelis-Menten constants of PfSHMT substrates", "format": "biochemical"}, "[5]": {"molecular_target": "the molecule itself", "test": "SEC"}}, "data": [{"molecule": "Cc1nc2ccc(CN(C)c3ccc(C(=O)N[C@@H](CCC(=O)O)C(=O)O)s3)cc2c(=O)[nH]1", "note": "[D1694]", "values": [{"measurement": "IC50", "setting": "[1]", "result": "> 500", "unit": "µM"}]}, {"molecule": "Cc1ncc(COP(=O)(O)O)c(C=O)c1O", "note": "[PLP, pyridoxal 5’-phosphate]", "values": [{"measurement": "Enzyme activity of apo enzyme with PLP added to the reaction", "setting": "[2]", "result": "increased by more than ten fold"}, {"measurement": "Effect on PfSHMT protein interaction with SHMT or DHFR-TS mRNA", "setting": "[3]", "result": "not abrogated"}]}, {"molecule": "CN(Cc1cnc2nc(N)nc(N)c2n1)c1ccc(C(=O)N[C@@H](CCC(=O)O)C(=O)O)cc1", "note": "[methotrexate]", "values": [{"measurement": "IC50", "setting": "[1]", "result": "> 500", "unit": "µM"}]}, {"molecule": "Nc1nc2[nH]cc(CCc3ccc(C(=O)N[C@@H](CCC(=O)O)C(=O)O)cc3)c2c(=O)[nH]1", "note": "[pemetrexed]", "values": [{"measurement": "IC50", "setting": "[1]", "result": "> 500", "unit": "µM"}]}, {"molecule": "CCc1nc(N)nc(N)c1-c1ccc(Cl)cc1", "note": "[pyrimethamine]", "values": [{"measurement": "IC50", "setting": "[1]", "result": "> 500", "unit": "µM"}]}, {"molecule": "N[C@@H](CO)C(=O)O", "note": "[serine]", "values": [{"measurement": "Effect on PfSHMT protein interaction with SHMT or DHFR-TS mRNA", "setting": "[3]", "result": "not abrogated"}]}, {"molecule": "tetrahydrofolate [THF]", "values": [{"measurement": "Vmax", "setting": "[4]; from velocity vs. substrate fit", "result": 188.5, "unit": "pmol/min"}, {"measurement": "Km", "setting": "[4]; read-out: Km, P falciparum, Table 1, P. falciparum SHMT", "result": 3.4, "unit": "mM"}]}, {"molecule": "B1", "values": [{"measurement": "stoichiometry N", "setting": "[5]", "result": 2}]}]}
